Test results reported in US6737383B1, “Herbicidal oxadiazolidines” (priority 1999, dated 2004).

Legend:
[1] = system: bedstraw; test: Test B pre/postemergence bedstraw; type: in vivo, Galium aparine
Summary of the method: (§1)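 Test chemicals in a non-phytotoxic solvent mixture with surfactant were sprayed preemergence onto planted seeds and postemergence onto plants 2 to 18 cm tall (1- to 4-leaf stage). After twelve to sixteen days in a greenhouse, injury was visually rated against untreated controls from 0 (no effect) to 10 (complete control).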

[2] = system: blackgrass; test: Test B pre/postemergence blackgrass; type: in vivo, Alopecurus myosuroides
Summary of the method: as §1

[3] = system: surinam grass; test: Test B pre/postemergence surinam grass; type: in vivo, Brachiaria decumbens
Summary of the method: as §1

[4] = system: cocklebur; test: Test B pre/postemergence cocklebur; type: in vivo, Xanthium strumarium
Summary of the method: as §1

[5] = system: corn; test: Test B pre/postemergence corn; type: in vivo, Zea mays
Summary of the method: as §1

[6] = system: giant foxtail; test: Test B pre/postemergence giant foxtail; type: in vivo, Setaria faberii
Summary of the method: as §1

[7] = system: morningglory; test: Test B pre/postemergence morningglory; type: in vivo, Ipomoea hederacea
Summary of the method: as §1

[8] = system: pigweed; test: Test B pre/postemergence pigweed; type: in vivo, Amaranthus retroflexus
Summary of the method: as §1

[9] = system: rape; test: Test B pre/postemergence rape; type: in vivo, Brassica napus
Summary of the method: as §1

[10] = system: soybean; test: Test B pre/postemergence soybean; type: in vivo, Glycine max
Summary of the method: as §1

[11] = system: sugar beet; test: Test B pre/postemergence sugar beet; type: in vivo, Beta vulgaris
Summary of the method: as §1

[12] = system: velvetleaf; test: Test B pre/postemergence velvetleaf; type: in vivo, Abutilon theophrasti
Summary of the method: as §1

[13] = system: wheat; test: Test B pre/postemergence wheat; type: in vivo, Triticum aestivum
Summary of the method: as §1

[14] = system: wild oat; test: Test B pre/postemergence wild oat; type: in vivo, Avena fatua
Summary of the method: as §1

[15] = system: rice; test: Test B flood test rice; type: in vivo, Oryza sativa
Summary of the method: (§2)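 Read-out is a visual response score from 0 (no effect) to 10 (complete control), assigned by comparison with untreated controls. Treatment was applied at the 2-leaf stage, and plants stayed in the greenhouse for twelve to sixteen days before scoring.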

[16] = system: smallflower flatsedge; test: Test B flood test smallflower flatsedge; type: in vivo, Cyperus difformis
Summary of the method: as §2

[17] = Preemergence, Rate 31 g/ha, visual rating, scale 0 to 10 (0 no effect, 10 complete control)
[18] = Preemergence, Rate 62 g/ha, scale of 0 to 10 where 0 is no effect and 10 is complete control
[19] = Preemergence, Rate 250 g/ha, scale of 0 to 10 where 0 is no effect and 10 is complete control
[20] = Rate 31 g/ha, Postemergence, scale 0 to 10
[21] = Rate 62 g/ha, Postemergence, scale 0 to 10 (0 no effect, 10 complete control)
[22] = Rate 125 g/ha, Postemergence, scale of 0 to 10 where 0 is no effect and 10 is complete control
[23] = Rate 125 g/ha, Preemergence, scale of 0 to 10 where 0 is no effect and 10 is complete control
[24] = Rate 250 g/ha, Postemergence, scale of 0 to 10 where 0 is no effect and 10 is complete control
[25] = Rate 31 g/ha, Pre-emergence section (flood test species), scale 0 to 10
[26] = Rate 62 g/ha, headed Pre-emergence (flood test species), scale 0 to 10 (0 no effect, 10 complete control)
[27] = Rate 125 g/ha, Pre-emergence, flood test species, scale 0 to 10 where 0 is no effect and 10 is complete control
[28] = Rate 250 g/ha, Pre-emergence, flood-test species, scale 0 to 10, 0 is no effect, 10 is complete control

SMILES: CC(C)=CCn1c(=O)on(C(=O)N(c2ccc(F)cc2)C(C)C)c1=O [Compound 288]
- Bedstraw plant response rating [1, 17]: 0
- Bedstraw plant response rating [1, 18]: 0
- Bedstraw plant response rating [1, 19]: 10
- Bedstraw plant response rating [1, 20]: 0
- Bedstraw plant response rating [1, 21]: 0
- Bedstraw plant response rating [1, 22]: 0
- Bedstraw plant response rating [1, 23]: 2
- Plant response rating, Bedstraw [1, 24]: 0
- Blackgrass plant response rating [2, 17]: 0
- Blackgrass plant response rating [2, 18]: 0
- Blackgrass plant response rating [2, 19]: 6
- Blackgrass plant response rating [2, 20]: 0
- Blackgrass plant response rating [2, 21]: 0
- Blackgrass plant response rating [2, 22]: 0
- Blackgrass plant response rating [2, 23]: 2
- Plant response rating, Blackgrass [2, 24]: 2
- B. signalgrass plant response rating [3, 17]: 0
- B. signalgrass plant response rating [3, 18]: 0
- B. signalgrass plant response rating [3, 19]: 6
- B. signalgrass plant response rating [3, 20]: 0
- B. signalgrass plant response rating [3, 21]: 0
- B. signalgrass plant response rating [3, 22]: 0
- B. signalgrass plant response rating [3, 23]: 4
- Plant response rating, B. signalgrass [3, 24]: 0
- Cocklebur plant response rating [4, 17]: 0
- Cocklebur plant response rating [4, 18]: 0
- Cocklebur plant response rating [4, 19]: 0
- Cocklebur plant response rating [4, 20]: 0
- Cocklebur plant response rating [4, 21]: 0
- Cocklebur plant response rating [4, 22]: 0
- Cocklebur plant response rating [4, 23]: 0
- Plant response rating, Cocklebur [4, 24]: 1
- Corn plant response rating [5, 17]: 0
- Corn plant response rating [5, 18]: 0
- Corn plant response rating [5, 19]: 0
- Corn plant response rating [5, 20]: 0
- Corn plant response rating [5, 21]: 0
- Corn plant response rating [5, 22]: 0
- Corn plant response rating [5, 23]: 0
- Plant response rating, Corn [5, 24]: 0
- Giant foxtail plant response rating [6, 17]: 0
- Giant foxtail plant response rating [6, 18]: 5
- Giant foxtail plant response rating [6, 19]: 10
- Giant foxtail plant response rating [6, 20]: 0
- Giant foxtail plant response rating [6, 21]: 0
- Giant foxtail plant response rating [6, 22]: 0
- Giant foxtail plant response rating [6, 23]: 9
- Plant response rating, Giant foxtail [6, 24]: 0
- Morningglory plant response rating [7, 17]: 0
- Morningglory plant response rating [7, 18]: 0
- Morningglory plant response rating [7, 19]: 0
- Morningglory plant response rating [7, 20]: 3
- Morningglory plant response rating [7, 21]: 7
- Morningglory plant response rating [7, 22]: 8
- Morningglory plant response rating [7, 23]: 0
- Plant response rating, Morningglory [7, 24]: 8
- Redroot pigweed plant response rating [8, 17]: 0
- Redroot pigweed plant response rating [8, 18]: 0
- Redroot pigweed plant response rating [8, 19]: 0
- Redroot pigweed plant response rating [8, 20]: 0
- Redroot pigweed plant response rating [8, 21]: 0
- Redroot pigweed plant response rating [8, 22]: 0
- Redroot pigweed plant response rating [8, 23]: 0
- Plant response rating, Redroot pigweed [8, 24]: 0
- Rape plant response rating [9, 17]: 0
- Rape plant response rating [9, 18]: 0
- Rape plant response rating [9, 19]: 0
- Rape plant response rating [9, 20]: 0
- Rape plant response rating [9, 21]: 1
- Rape plant response rating [9, 22]: 2
- Rape plant response rating [9, 23]: 0
- Plant response rating, Rape [9, 24]: 3
- Soybean plant response rating [10, 17]: 0
- Soybean plant response rating [10, 18]: 0
- Soybean plant response rating [10, 19]: 0
- Soybean plant response rating [10, 21]: 0
- Soybean plant response rating [10, 22]: 2
- Soybean plant response rating [10, 23]: 0
- Plant response rating, Soybean [10, 24]: 2
- Sugarbeets plant response rating [11, 17]: 0
- Sugarbeets plant response rating [11, 18]: 0
- Sugarbeets plant response rating [11, 19]: 0
- Sugarbeets plant response rating [11, 21]: 0
- Sugarbeets plant response rating [11, 22]: 0
- Sugarbeets plant response rating [11, 23]: 0
- Plant response rating, Sugarbeets [11, 24]: 0
- Velvetleaf plant response rating [12, 17]: 0
- Velvetleaf plant response rating [12, 18]: 0
- Velvetleaf plant response rating [12, 19]: 3
- Velvetleaf plant response rating [12, 21]: 0
- Velvetleaf plant response rating [12, 22]: 0
- Velvetleaf plant response rating [12, 23]: 0
- Plant response rating, Velvetleaf [12, 24]: 1
- Wheat plant response rating [13, 17]: 0
- Wheat plant response rating [13, 18]: 0
- Wheat plant response rating [13, 19]: 2
- Wheat plant response rating [13, 21]: 0
- Wheat plant response rating [13, 22]: 0
- Wheat plant response rating [13, 23]: 0
- Plant response rating, Wheat [13, 24]: 0
- Wild oats plant response rating [14, 17]: 0
- Wild oats plant response rating [14, 18]: 0
- Wild oats plant response rating [14, 19]: 5
- Wild oats plant response rating [14, 21]: 0
- Wild oats plant response rating [14, 22]: 0
- Plant response rating, Wild oats [14, 24]: 0
- Rice plant response rating [15, 25]: 0
- Rice plant response rating [15, 26]: 0
- Rice plant response rating [15, 27]: 0
- Rice plant response rating [15, 28]: 0
- S. Flatsedge plant response rating [16, 25]: 0
- S. Flatsedge plant response rating [16, 26]: 0
- S. Flatsedge plant response rating [16, 27]: 0
- S. Flatsedge plant response rating [16, 28]: 0
